# Experimental data published in ChEMBL document CHEMBL5212743, “Selectivity Literature for EUbOPEN Chemogenomics Library wave 3” (2023).
# Tests used:
# [1] = target: Phosphatidylinositol 4,5-bisphosphate 3-kinase catalytic subunit gamma isoform (Homo sapiens, UniProt P48736); test: Selectivity interaction (KinomeScan (DiscoverX, competition-binding assay)) EUB0000178b PIK3CG
# [2] = target: T1, Serine/threonine-protein kinase TAO3 (Homo sapiens) (UniProt Q9H2K8); test: Selectivity interaction (KinomeScan (DiscoverX)) EUB0000178b TAOK3; conditions: at 1 µM
# T1 sequence (whole entry): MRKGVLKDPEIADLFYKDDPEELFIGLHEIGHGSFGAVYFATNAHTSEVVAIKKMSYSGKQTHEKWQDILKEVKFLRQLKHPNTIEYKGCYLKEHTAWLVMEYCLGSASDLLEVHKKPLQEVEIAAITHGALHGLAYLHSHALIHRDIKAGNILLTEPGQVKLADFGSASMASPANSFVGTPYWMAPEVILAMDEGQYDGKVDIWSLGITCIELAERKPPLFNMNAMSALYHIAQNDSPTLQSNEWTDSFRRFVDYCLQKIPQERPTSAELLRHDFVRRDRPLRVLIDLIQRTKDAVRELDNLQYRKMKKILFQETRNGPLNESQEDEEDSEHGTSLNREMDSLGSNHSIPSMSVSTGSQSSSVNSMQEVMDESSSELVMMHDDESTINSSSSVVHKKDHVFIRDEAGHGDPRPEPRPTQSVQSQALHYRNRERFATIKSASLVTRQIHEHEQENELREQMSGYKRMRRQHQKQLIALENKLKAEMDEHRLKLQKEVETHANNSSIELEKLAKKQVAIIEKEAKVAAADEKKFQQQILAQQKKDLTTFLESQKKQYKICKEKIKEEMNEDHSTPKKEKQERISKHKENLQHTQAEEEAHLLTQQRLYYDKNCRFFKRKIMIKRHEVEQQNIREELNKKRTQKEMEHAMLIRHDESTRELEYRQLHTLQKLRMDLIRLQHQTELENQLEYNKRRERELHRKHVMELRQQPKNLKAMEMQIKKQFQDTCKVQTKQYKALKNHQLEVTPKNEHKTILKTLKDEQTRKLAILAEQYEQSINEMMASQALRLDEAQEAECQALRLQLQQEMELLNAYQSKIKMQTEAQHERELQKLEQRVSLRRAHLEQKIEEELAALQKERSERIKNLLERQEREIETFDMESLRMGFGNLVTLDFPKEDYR
# [3] = target: Serine/threonine-protein kinase 16 (Homo sapiens, UniProt O75716); test: Selectivity interaction (KinomeScan (DiscoverX)) EUB0000138c STK16; conditions: at 100 nM
# [4] = target: Serine/threonine-protein kinase Nek6 (Homo sapiens) (UniProt Q9HC98); test: Selectivity interaction (Kinase panel (University of Dundee)) EUB0000169b NEK6; conditions: at 10 µM
# Serine/threonine-protein kinase Nek6 (Homo sapiens), sequence (Q9HC98 whole entry): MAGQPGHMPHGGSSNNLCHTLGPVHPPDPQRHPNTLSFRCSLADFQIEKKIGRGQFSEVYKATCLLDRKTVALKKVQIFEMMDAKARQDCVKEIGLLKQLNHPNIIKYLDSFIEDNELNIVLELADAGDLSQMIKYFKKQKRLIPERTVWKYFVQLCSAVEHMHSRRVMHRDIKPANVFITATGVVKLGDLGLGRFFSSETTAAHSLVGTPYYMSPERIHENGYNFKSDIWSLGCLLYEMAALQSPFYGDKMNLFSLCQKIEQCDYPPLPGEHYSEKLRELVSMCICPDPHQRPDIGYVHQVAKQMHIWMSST
# Serine/threonine-protein kinase 16, sequence (O75716 whole entry): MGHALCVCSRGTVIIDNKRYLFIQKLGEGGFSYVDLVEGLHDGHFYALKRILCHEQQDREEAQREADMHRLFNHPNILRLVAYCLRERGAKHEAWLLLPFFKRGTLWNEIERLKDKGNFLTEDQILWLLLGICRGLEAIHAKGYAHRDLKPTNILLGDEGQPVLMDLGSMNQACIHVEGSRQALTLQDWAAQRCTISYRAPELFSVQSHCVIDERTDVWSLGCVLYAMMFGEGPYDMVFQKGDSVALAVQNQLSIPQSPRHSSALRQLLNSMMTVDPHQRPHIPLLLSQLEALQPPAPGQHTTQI
# Phosphatidylinositol 4,5-bisphosphate 3-kinase catalytic subunit gamma isoform, sequence (P48736 whole entry, canonical isoform): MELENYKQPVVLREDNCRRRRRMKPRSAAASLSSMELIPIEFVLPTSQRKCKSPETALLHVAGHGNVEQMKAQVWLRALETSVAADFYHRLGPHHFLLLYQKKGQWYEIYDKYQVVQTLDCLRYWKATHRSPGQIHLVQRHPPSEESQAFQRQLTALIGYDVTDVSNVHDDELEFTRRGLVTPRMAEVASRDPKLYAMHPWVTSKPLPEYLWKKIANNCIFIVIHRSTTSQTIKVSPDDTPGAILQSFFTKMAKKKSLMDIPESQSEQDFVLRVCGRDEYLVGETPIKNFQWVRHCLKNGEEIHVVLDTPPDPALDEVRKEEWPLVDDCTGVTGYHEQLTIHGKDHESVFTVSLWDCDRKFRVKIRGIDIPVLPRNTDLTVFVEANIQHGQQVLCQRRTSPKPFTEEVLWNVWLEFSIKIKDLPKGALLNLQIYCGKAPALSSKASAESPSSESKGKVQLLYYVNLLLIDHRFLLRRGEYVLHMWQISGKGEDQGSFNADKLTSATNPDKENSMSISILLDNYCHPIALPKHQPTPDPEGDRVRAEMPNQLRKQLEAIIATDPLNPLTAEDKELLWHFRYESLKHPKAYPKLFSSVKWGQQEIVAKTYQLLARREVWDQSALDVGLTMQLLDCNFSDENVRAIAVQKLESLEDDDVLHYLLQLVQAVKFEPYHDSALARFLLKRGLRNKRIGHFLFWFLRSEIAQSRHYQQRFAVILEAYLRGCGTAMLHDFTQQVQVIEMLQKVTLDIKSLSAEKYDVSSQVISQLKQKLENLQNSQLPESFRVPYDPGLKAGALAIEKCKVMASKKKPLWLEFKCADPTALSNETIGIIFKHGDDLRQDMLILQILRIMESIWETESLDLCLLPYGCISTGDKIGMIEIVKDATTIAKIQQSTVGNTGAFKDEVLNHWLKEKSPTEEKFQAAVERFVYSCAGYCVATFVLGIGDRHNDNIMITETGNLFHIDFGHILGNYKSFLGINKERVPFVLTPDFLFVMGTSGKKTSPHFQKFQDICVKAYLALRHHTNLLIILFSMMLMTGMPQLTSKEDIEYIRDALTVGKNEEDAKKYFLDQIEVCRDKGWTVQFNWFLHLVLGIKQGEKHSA
structure (smiles),measurement,setting,value
CN1C(=O)c2sccc2N(C)c2nc(Nc3ccc(S(N)(=O)=O)cc3)ncc21,Kd,[1],8.4 nM
same,% of control,[2],4.5%
CNC(=O)c1ccc(Nc2ncc(C(F)(F)F)c(NCc3nccnc3N(C)S(C)(=O)=O)n2)cc1 [DEFACTINIB],% of control,[3],7.7%
CC[C@@H]1C(=O)N(C)c2cnc(Nc3ccc(C(=O)NC4CCN(C)CC4)cc3OC)nc2N1C1CCCC1,% of control,[4],110%
